# According to US20230226084A1, “NON-INVASIVE METHOD OF TREATING COVID-19 INFECTION” (priority 2022, published 2023):
# System: COVID-19 infection
# Assay type: in vivo
# Conditions: one subject
# [1] = confirmed COVID-19, furosemide orally twice daily, 40 mg mornings and 20 mg at 6 hours interval, for 3 days
smiles,measurement,setting,value
NS(=O)(=O)c1cc(C(=O)O)c(NCc2ccco2)cc1Cl [furosemide],"Subsidence of symptoms (cough, headache, body ache, fever, breathing difficulties)",[1],subsided on the second day
same,Total recovery of the subject,[1],totally recovered by night on the third day
same,"Infection status per Government hospital certificate, a while after treatment",after furosemide orally for 3 days,negative status for the infection
